Test results: patent US20240409519A1, “HYDROGENATED QUINOXALINES” (OTSUKA PHARMACEUTICAL CO., LTD., priority 2021, published 2024)

What was measured:
[1] = biological target: T1, serotonin (5-HT) uptake (Rattus norvegicus, UniProt P31652); test: Serotonin (5-HT) uptake inhibitory activity in rat brain synaptosome; assay type: biochemical; conditions: rat frontal cortex synaptosome, tritium-labeled 5-HT 8 nM; read-out: IC50 (nM), serotonin (5-HT) uptake inhibition
T1 construct: used as crude synaptosomal fraction; from tissue; host or cells: rat frontal cortex, crude synaptosomal fraction
Experimental: Male Wistar rats were decapitated, each brain was removed, and the frontal cortex was cut out. […] The homogenate was centrifuged at 1000 g at 4° C. for 10 minutes, and the supernatant was further centrifuged at 20000 g at 4° C. for 20 minutes. The pellet was suspended in an incubation buffer (20 mM Hepes buffer (pH 7.4) containing 10 mM glucose, 145 mM sodium chloride, 4.5 mM potassium chloride, 1.2 mM magnesium chloride and 1.5 mM calcium chloride) and used as crude synaptosomal fraction.
Each well of a 96-well round-bottom plate was used for the uptake reaction in a total volume of 200 μL solution containing purgurin (final concentration 10 μM) and ascorbic acid (final concentration 0.2 mg/mL). In other words, solvent, unlabeled 5-HT or step-diluted test compound was added to each well, and one-tenth of the final volume of the synaptosomal fraction was added to each well, followed by pre-incubation at 37° C. for 10 minutes, and then tritium-labeled 5-HT solution (final concentration 8 nM) was added and the uptake reaction was initiated at 37° C. After 10 minutes, the uptake reaction was terminated by suction filtration onto a 96-well glass fiber filter plate. The filters were rinsed with cold physi-ological saline solution, dried thoroughly, and micro scintillation 0 (Perkin-Elmer) was added thereto. Then, the residual radioactivity on the filters was measured.
The uptake value when only solvent was added was set as 100%, the uptake value when unlabeled 5-HT (final concentration 10 μM) was added as 0% (nonspecific uptake value), and the 50% inhibitory concentration was calculated from the concentration of the test compound and its inhibitory activity.

[2] = Metabolic stability test (human liver microsome, hepatic intrinsic clearance); assay type: in vitro ADME; conditions: human liver microsomes, pH 7.4; human liver microsome 0.2 mg/mL, test compound 0.001 mmol/L, 37° C., 0, 10 and 20 minutes
Experimental: A metabolic reaction was initiated by adding and mixing a test compound solution (final concentration 0.001 mmol/L) and a NADH/NADPH solution (final concentration 1 mmol/L) to a human liver microsome solution (final concentration 100 mmol/L potassium phosphate buffer solution (pH 7.4), 5 mmol/L magnesium chloride, 0.2 mg/ml, human liver microsome). A solution of the internal standard in methanol was prepared and used as a quenching solution.
Specifically, a metabolic reaction was initiated by adding and mixing 2.5 μL of a solution of a test compound in acetonitrile to 222.5 μL of a human liver microsome solution in ice water, followed by preincubation at 37° C. for 1 minute, and then adding 25 μL of a NADH/NADPH solution thereto.
The mixture was centrifuged (6130 g, 4° C., 10 minutes) and the supernatant was used as a sample for LC-MS/MS.
Peak area ratio ([peak area of test compound]/[peak area of internal standard]) was calculated for the test compound and the internal standard.
The residual ratio of the test compound was calculated from ([Ratio of peak areas at each reaction time]/[Ratio of peak areas at 0 minute reaction time]).

[3] = biological target: T2, CYP2C9 (Homo sapiens, UniProt P11712); test: CYP inhibition test (1): inhibition rate (%) at one concentration, CYP2C9; assay type: in vitro ADME; conditions: human liver microsomes, pH 7.4, probe diclofenac (0.005 mmol/L); test compound 0.01 mmol/L, human liver microsome 0.1 mg/mL, substrate diclofenac, 37° C. 10 minutes; read-out: inhibition rate (%) 2C9
T2 construct: a human liver microsome solution containing three CYP-specific substrates; from tissue; host or cells: human liver microsomes
Experimental: (§1) A metabolic reaction was initiated by adding and mixing a test compound solution (final concentration 0.01 mmol/L) and a NADH/NADPH solution (final concentration 1 mmol/L) to a human liver microsome solution containing three CYP-specific substrates (final concentration 100 mmol/L potassium phosphate buffer solution (pH 7.4), 5 mmol/L magnesium chloride, 0.1 mg/mL human liver microsome, 0.005 mmol/L diclofenac (for CYP2C9), 0.01 mmol/L bufuralol (for […]), 0.005 mmol/L midazolam (for CYP3A4)). As an internal standard solution, a solution of each of stable isotopes of the metabolites (50 ng/mL [13C6] hydroxy diclofenac, 5 ng/mL [2H9] hydroxy bufuralol, and 5 ng/mL [13C6] hydroxy midazolam (all stable isotopes)) in methanol was prepared and used as a quenching solution.
(§2) Specifically, a metabolic reaction was initiated by adding and mixing 2 μL of a solution of a test compound in acetonitrile (or acetonitrile as a control) to 178 μL of a human liver microsome solution in ice water, followed by preincubation at 37° C. for 1 minute, and then adding 20 μL of a NADH/NADPH solution thereto. After incubation at 37° C. for 10 minutes, 50 μL of the reaction mixture was taken, and then it was added and mixed to 500 μL of a quenching solution to quech the reaction. The mixture was centrifuged (6130 g, 4° C., 10 minutes) and the supernatant was used as a sample for LC-MS/MS.
(§3) Peak area ratio ([peak area of metabolite]/[peak area of corresponding stable isotope]) was calculated for a metabolite and a stable isotope of the metabolite as measurement object. By comparing the peak area ratio of each test compound solution with that of the control, the inhibition rate (%) of each CYP species for each test compound was calculated from (1-[peak area ratio of each test compound solution]/[peak area ratio of control])×100.

[4] = biological target: T3, CYP2D6 (Homo sapiens, UniProt P10635); test: CYP inhibition test (1): inhibition rate (%) at one concentration, CYP2D6; assay type: in vitro ADME; conditions: human liver microsomes, pH 7.4, probe bufuralol (0.01 mmol/L); test compound 0.01 mmol/L, human liver microsome 0.1 mg/mL, substrate bufuralol, 37° C. 10 minutes; read-out: inhibition rate (%) 2D6
T3 construct: a human liver microsome solution containing three CYP-specific substrates; from tissue; host or cells: human liver microsomes
Experimental: as §1, §2, §3

T3 sequence (P10635 whole entry): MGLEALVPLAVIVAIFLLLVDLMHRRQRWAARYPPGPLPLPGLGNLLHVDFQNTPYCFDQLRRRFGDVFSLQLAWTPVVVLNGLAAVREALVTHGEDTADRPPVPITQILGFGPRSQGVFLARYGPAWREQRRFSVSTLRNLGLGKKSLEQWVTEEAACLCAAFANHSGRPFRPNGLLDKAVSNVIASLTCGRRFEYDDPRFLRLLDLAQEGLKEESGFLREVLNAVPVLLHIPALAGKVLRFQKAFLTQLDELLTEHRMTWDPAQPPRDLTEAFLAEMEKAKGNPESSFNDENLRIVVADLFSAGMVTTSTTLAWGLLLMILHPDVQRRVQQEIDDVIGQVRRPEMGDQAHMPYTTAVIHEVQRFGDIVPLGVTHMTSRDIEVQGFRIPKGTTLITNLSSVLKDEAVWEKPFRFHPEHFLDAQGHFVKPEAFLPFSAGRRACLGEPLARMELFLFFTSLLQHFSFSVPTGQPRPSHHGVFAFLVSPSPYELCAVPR
T1 sequence (P31652 whole entry): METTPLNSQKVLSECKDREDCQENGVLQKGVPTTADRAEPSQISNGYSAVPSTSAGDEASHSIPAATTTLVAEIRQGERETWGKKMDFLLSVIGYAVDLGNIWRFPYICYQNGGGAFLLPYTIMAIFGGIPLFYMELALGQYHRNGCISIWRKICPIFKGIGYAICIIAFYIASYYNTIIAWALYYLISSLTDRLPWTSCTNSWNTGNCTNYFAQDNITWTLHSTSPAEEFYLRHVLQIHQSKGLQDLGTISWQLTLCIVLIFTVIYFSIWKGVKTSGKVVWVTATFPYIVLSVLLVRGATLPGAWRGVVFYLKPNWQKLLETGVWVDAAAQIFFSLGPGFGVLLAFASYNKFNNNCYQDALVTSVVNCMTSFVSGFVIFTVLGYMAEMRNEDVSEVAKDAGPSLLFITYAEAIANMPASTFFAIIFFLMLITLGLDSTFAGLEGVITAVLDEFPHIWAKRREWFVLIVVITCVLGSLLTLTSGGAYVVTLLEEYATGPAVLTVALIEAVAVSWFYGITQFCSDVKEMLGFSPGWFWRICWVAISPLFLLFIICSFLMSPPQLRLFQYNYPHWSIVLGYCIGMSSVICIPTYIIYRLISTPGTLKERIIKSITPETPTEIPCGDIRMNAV
T2 sequence (P11712 whole entry): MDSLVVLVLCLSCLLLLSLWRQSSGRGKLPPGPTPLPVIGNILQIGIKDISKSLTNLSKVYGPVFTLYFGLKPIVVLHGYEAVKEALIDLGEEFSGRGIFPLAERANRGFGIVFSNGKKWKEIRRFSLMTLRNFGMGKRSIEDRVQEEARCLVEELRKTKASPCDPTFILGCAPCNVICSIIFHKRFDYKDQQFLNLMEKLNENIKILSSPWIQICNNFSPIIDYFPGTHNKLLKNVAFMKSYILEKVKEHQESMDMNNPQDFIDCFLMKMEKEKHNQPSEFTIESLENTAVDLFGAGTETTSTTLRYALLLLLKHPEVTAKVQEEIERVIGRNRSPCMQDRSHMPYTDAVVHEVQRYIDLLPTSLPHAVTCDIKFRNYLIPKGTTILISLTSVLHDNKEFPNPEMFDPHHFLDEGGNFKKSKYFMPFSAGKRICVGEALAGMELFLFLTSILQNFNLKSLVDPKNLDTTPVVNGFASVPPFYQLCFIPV

Row | SMILES | IC50 [1] | microsomal CLint at 0.001 mmol/L [2] | inhibition at 10 min, 0.01 mmol/L [3] | inhibition at 10 min, 0.01 mmol/L [4]
1 | CC1(C)CN(c2ccc(OCCO)cc2Cl)[C@H]2CCCC[C@H]2N1 [Example 64, 2-(3-chloro-4-((4aR,8aS)-3,3-dimethyloctahydroquinoxalin-1(2H)-yl)phenoxy)ethan-1-ol 1/2fumarate] | 8.8 nM | < 50 µL/min/mg | 10.2% | 21.6%
2 | Cc1c(OC(F)(F)CO)ccc(N2CC(C)(C)N[C@H]3CCCC[C@H]32)c1F [Example 69, 2-(4-((4aS,8aR)-3,3-dimethyloctahydroquinoxalin-1(2H)-yl)-3-fluoro-2-methylphenoxy)-2,2-difluoroethan-1-ol 1/2fumarate] | 5.7 nM | < 50 µL/min/mg | 14.8% | 45.6%
3 | Cc1c(OC(F)(F)CO)ccc(N2CC(C)(C)N[C@@H]3CCCC[C@@H]32)c1F [Example 70] | 7 nM | < 50 µL/min/mg | 15.8% | 28.4%
4 | CC1(C)CN(c2cc(F)c(OC(F)(F)CO)cc2F)[C@H]2CCCC[C@H]2N1 [Example 71] | 57 nM | < 50 µL/min/mg | 0.6% | 28.8%
5 | CC1(C)CN(c2cc(F)c(OCCO)cc2F)[C@H]2CCCC[C@H]2N1 [Example 72] | 55.4 nM | < 50 µL/min/mg | 1.7% | 17.9%
6 | CC1(C)CN(c2ccc(OC(F)(F)CO)c(F)c2F)[C@H]2CCCC[C@H]2N1 [Example 73] | 8.7 nM | < 50 µL/min/mg | 4.8% | 21.5%
7 | CC1(C)CN(c2cc(Cl)c(OC(F)(F)CO)cc2F)[C@H]2CCCC[C@@H]2N1 [Example 75] | 9.4 nM | < 50 µL/min/mg | 9.1% | 19.3%
8 | CC1(C)CN(c2cc(Cl)c(OC(F)(F)CO)cc2F)[C@@H]2CCCC[C@H]2N1 [Example 76] | 98.3 nM | < 50 µL/min/mg | 12.6% | 21.9%
9 | CC1(C)CN(c2cc(F)c(OC(F)(F)CO)cc2F)[C@H]2CCCC[C@@H]2N1 [Example 77] | 42.3 nM | < 50 µL/min/mg | 7.9% | 18.1%
10 | Cc1c(OC(F)(F)CO)ccc(N2CC(C)(C)N[C@H]3CCCC[C@@H]32)c1F [Example 79] | 37.3 nM | < 50 µL/min/mg | 8.9% | 38.8%
11 | CC1(C)CN(c2ccc(OC(F)(F)CO)c(Cl)c2F)[C@@H]2CCCC[C@H]2N1 [Example 80] | 62.8 nM | 57 µL/min/mg | 2% | 20.9%
